From ChEMBL document CHEMBL1134265, “2-Aryl indole NK1 receptor antagonists: optimisation of the 2-aryl ring and the indole nitrogen substituent” (Bioorg Med Chem Lett, 2001)

Columns and labels:
Substance-P receptor [1] = biological target: T1, Substance-P receptor (Homo sapiens, UniProt P25103); assay: Concentration required for displacement of [125I]-labeled substance P from cloned hNK1 receptor expressed in CHO cells(*).; format: cell-based
Gerbillinae [2] = assay: In vivo percent inhibition of gerbil foot-tapping after 3 mg/kg, iv administration prior to icv infusion of GR-73632 in vehicle-treated animals; format: functional
Gerbillinae [3] = assay: In vivo inhibitory dose against gerbil foot-tapping after iv administration prior to icv infusion of GR-73632 in vehicle-treated animals; format: functional; conditions: read-out: ID50 (the source's name)
Substance-P receptor [4] = biological target: T1, Substance-P receptor; assay: Tested for displacement of [125I]-labeled substance P from cloned hNK1 receptor expressed in CHO cells (*); format: cell-based; conditions: concentration not given here
Substance-P receptor [5] = biological target: T1, Substance-P receptor; assay: Tested for displacement of [125I]-labeled substance P from cloned hNK1 receptor expressed in CHO cells at 100 nM; format: cell-based
Gerbillinae [6] = assay: In vivo inhibitory dose against gerbil foot-tapping after iv administration prior to icv infusion of GR-73632 for a duration of 5 min in vehicle-treated animals; format: functional; conditions: read-out: ID50 (the source's name)

T1 sequence (P25103 whole entry, the tested form may be a part): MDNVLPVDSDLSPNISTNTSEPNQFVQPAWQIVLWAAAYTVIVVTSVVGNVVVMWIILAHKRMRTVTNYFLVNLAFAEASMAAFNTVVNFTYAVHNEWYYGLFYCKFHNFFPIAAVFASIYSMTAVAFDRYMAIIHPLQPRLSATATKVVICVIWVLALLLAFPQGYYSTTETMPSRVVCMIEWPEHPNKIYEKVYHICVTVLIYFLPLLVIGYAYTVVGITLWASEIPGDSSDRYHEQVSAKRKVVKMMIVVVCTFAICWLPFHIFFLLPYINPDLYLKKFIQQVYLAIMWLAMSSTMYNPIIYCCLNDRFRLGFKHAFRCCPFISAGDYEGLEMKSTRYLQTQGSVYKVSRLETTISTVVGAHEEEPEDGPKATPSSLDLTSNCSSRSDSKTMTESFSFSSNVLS

SMILES | IC50 (Substance-P receptor [1]) | also measured
COc1ccccc1N1CCN(C(=O)CCc2c(-c3ccc(Cl)cc3)n(Cc3ccccc3)c3ccc(Cl)cc23)CC1 | 96 nM | –
COc1ccccc1N1CCN(C(=O)CCc2c(-c3ccc(C(C)(C)C)cc3)[nH]c3ccc(C)cc23)CC1 | 6.3 nM | –
COc1ccccc1N1CCN(C(=O)CCc2c(-c3ccc(C(F)(F)F)cc3)[nH]c3ccc(C)cc23)CC1 | 0.44 nM | –
COc1ccccc1N1CCN(C(=O)CCc2c(-c3ccc(C(C)C)cc3)[nH]c3ccc(C)cc23)CC1 | 0.2 nM | inhibition in vivo at 3 mg/kg (Gerbillinae [2]): 100%
COc1ccccc1N1CCN(C(=O)CCc2c(-c3ccc(Cl)cc3)[nH]c3ccc(C)cc23)CC1 | – | inhibition in vivo at 3 mg/kg (Gerbillinae [2]): 22%
COc1ccccc1N1CCN(C(=O)CCc2c(-c3ccc(Br)cc3)[nH]c3ccc(C)cc23)CC1 | – | inhibition in vivo at 3 mg/kg (Gerbillinae [2]): 46%
COc1ccccc1N1CCN(C(=O)CCc2c(-c3ccc(Cl)cc3)n(CC3CC3)c3ccc(Cl)cc23)CC1 | 103 nM | –
Cn1c(-c2cccnc2)c(CCC(=O)N2CCC(O)(Cc3ccccc3)CC2)c2cc(Cl)ccc21 | 0.92 nM | –
Cn1c(-c2ccc(C(F)(F)F)cn2)c(CCC(=O)N2CCC(O)(Cc3ccccc3)CC2)c2cc(Cl)ccc21 | 0.12 nM | ED50 (Gerbillinae [3]): 0.1 mg/kg
COc1ccccc1N1CCN(C(=O)CCc2c(-c3ccncc3)[nH]c3ccc(C)cc23)CC1 | – | inhibition (Substance-P receptor [4]): 58%
COc1ccccc1N1CCN(C(=O)CCc2c(-c3ccc(Cl)cc3)n(C(C)C)c3ccc(Cl)cc23)CC1 | 5.2 nM | –
COc1ccccc1N1CCN(C(=O)CCc2c(-c3ccc(Cl)cc3)n(CCO)c3ccc(Cl)cc23)CC1 | 0.97 nM | –
COc1ccccc1N1CCN(C(=O)CCc2c(-c3cccc(Br)c3)[nH]c3ccc(C)cc23)CC1 | – | inhibition (Substance-P receptor [4]): 37%
COC(=O)Cn1c(-c2ccc(Cl)cc2)c(CCC(=O)N2CCN(c3ccccc3OC)CC2)c2cc(Cl)ccc21 | 15 nM | –
COc1cccc(-c2[nH]c3ccc(C)cc3c2CCC(=O)N2CCN(c3ccccc3OC)CC2)c1 | 8 nM | –
COc1ccccc1N1CCN(C(=O)CCc2c(-c3ccc(Cl)cc3)n(C)c3ccc(C)cc23)CC1 | 0.11 nM | inhibition in vivo at 3 mg/kg (Gerbillinae [2]): 100%
COc1ccccc1N1CCN(C(=O)CCc2c(-c3ccccc3)[nH]c3ccc(C)cc23)CC1 | 6.1 nM | –
Cn1c(-c2ccccn2)c(CCC(=O)N2CCC(O)(Cc3ccccc3)CC2)c2cc(Cl)ccc21 | 2.9 nM | –
COc1ccccc1N1CCN(C(=O)CCc2c(-c3ccc(Cl)cc3)n(C)c3ccc(Cl)cc23)CC1 | 0.28 nM | –
COc1ccccc1N1CCN(C(=O)CCc2c(-c3ccc(C(C)C)cc3)n(C)c3ccc(C)cc23)CC1 | 0.33 nM | inhibition in vivo at 3 mg/kg (Gerbillinae [2]): 100%
COc1ccccc1N1CCN(C(=O)CCc2c3n(c4ccc(C)cc24)Cc2ccccc2-3)CC1 | – | inhibition (Substance-P receptor [5]): 55%
Cc1ccc(-c2c(CCC(=O)N3CCC(O)(Cc4ccccc4)CC3)c3cc(Cl)ccc3n2C)cn1 | 0.12 nM | ED50 (Gerbillinae [3]): 0.68 mg/kg
COc1ccc(-c2[nH]c3ccc(C)cc3c2CCC(=O)N2CCN(c3ccccc3OC)CC2)cc1 | 1.5 nM | –
COc1ccccc1-c1[nH]c2ccc(C)cc2c1CCC(=O)N1CCN(c2ccccc2OC)CC1 | 82 nM | –
COc1ccccc1N1CCN(C(=O)CCc2c(-c3ccccc3Br)[nH]c3ccc(C)cc23)CC1 | 89 nM | –
COc1ccccc1N1CCN(C(=O)CCc2c(-c3ccc(C(F)(F)F)cc3)n(C)c3ccc(C)cc23)CC1 | 0.14 nM | inhibition in vivo at 3 mg/kg (Gerbillinae [2]): 93%
COc1ccccc1N1CCN(C(=O)CCc2c[nH]c3ccc(C)cc23)CC1 | – | inhibition (Substance-P receptor [4]): 18%
COc1ccccc1N1CCN(C(=O)CCc2c(-c3ccc(Br)cc3)n(C)c3ccc(C)cc23)CC1 | 0.14 nM | inhibition in vivo at 3 mg/kg (Gerbillinae [2]): 100%; ED50 (Gerbillinae [6]): 0.5 mg/kg
COc1ccccc1N1CCN(C(=O)CCc2c(-c3ccc(-c4ccccc4)cc3)[nH]c3ccc(C)cc23)CC1 | 7.6 nM | –
